Test results published in patent US20250011307A1, “CRYSTALLINE FORMS OF BIARYL YAP/TAZ-TEAD PROTEIN-PROTEIN INTERACTION INHIBITORS” (Novartis AG, priority 2021, published 2025).

Tests used:
Type in all cases: physicochemical
[1] = Xenon light stress test of bulk (HPLC degradation products, color, XRPD); design: key to CL color: A: No change; B: Slight discoloration; C: Medium discoloration; D: Strong discoloration; details: Compound A forms, Xenon light (1200 kLuxh, 25° C.)
Procedure: (§1) X-ray powder diffraction (XRPD) patterns were obtained using a Bruker Advance D8 in reflection geometry. Powders were analyzed using a zero background Si flat sample holder. The radiation used was Cu Kα (A=1.5418 Å). Patterns were measured between 2° and 40° 2theta. • Sample amount: 5-10 mg • Sample holder: zero background Si flat sample holder
as §1, with “radiation” for “radiation used”, “(λ=1.5418” for “(A=1.5418”

[2] = Hygroscopicity (loss on drying by TGA and XRPD, as is and after storage at 92% / 80% RH); details: Compound A forms; for Loss on drying by TGA [%]: TGA temperature per cell: Modification A 110° C., amorphous 119° C., 4-hydroxybenzoate 200° C.
[3] = Solubility after equilibration at 25° C. for 24 h, with final pH and XRPD of solid residues; details: Compound A forms
[4] = Solid state bulk stability stress test (HPLC degradation products, color, XRPD); design: key to CL color: A: No change; B: Slight discoloration; C: Medium discoloration; D: Strong discoloration; details: Compound A forms
[5] = Excipient compatibility stress test (HPLC degradation products, color); design: key to CL color: A: No change; B: Slight discoloration; C: Medium discoloration; D: Strong discoloration; details: Compound A forms
[6] = Hygroscopicity, before RH storage
[7] = FaSSIF V2 pH 6.5, target concentration 20 mg/10 mL
[8] = FeSSIF V2 pH 5.8, target concentration 20 mg/10 mL
[9] = SGF pH 2.0, target concentration 20 mg/10 mL
[10] = Water, target concentration 20 mg/10 mL
[11] = pH 1.2, 100 mM HCl, target concentration 20 mg/10 mL
[12] = pH 3.0, 50 mM citrate buffer, target concentration 20 mg/10 mL
[13] = pH 4.7, 50 mM acetate buffer, target concentration 20 mg/10 mL
[14] = pH 6.8, 50 mM phosphate buffer with 50 mM Na taurocholate
[15] = pH 6.8, 50 mM phosphate buffer with 50 mM Na taurocholate, target concentration 20 mg/10 mL
[16] = pH 6.8, 50 mM phosphate buffer, target concentration 20 mg/10 mL
[17] = 2 weeks 50° C./75% RH, 1% in mixture 1
[18] = 2 weeks 50° C./75% RH, 1% in mixture 2
[19] = 2 weeks 50° C./75% RH, 1% in mixture 3
[20] = 2 weeks 50° C./75% RH, HGC capsule powder
[21] = 2 weeks 50° C./75% RH, HPMC capsule powder
[22] = 2 weeks 70° C./11% RH, 1% in mixture 1
[23] = 2 weeks 70° C./11% RH, 1% in mixture 2
[24] = 2 weeks 70° C./11% RH, 1% in mixture 3
[25] = 2 weeks 70° C./11% RH, HGC capsule powder
[26] = 2 weeks 70° C./11% RH, HPMC capsule powder
[27] = 2 weeks 70° C./75% RH, 1% in mixture 1
[28] = 2 weeks 70° C./75% RH, 1% in mixture 2
[29] = 2 weeks 70° C./75% RH, 1% in mixture 3
[30] = 2 weeks 70° C./75% RH, HPC capsule powder
[31] = 2 weeks 70° C./75% RH, HPMC capsule powder

For `CNC(=O)c1cnc(OCCO)c(F)c1-c1c(Cl)c(F)cc2c1C[C@](c1ccccc1)([C@@H]1CCCN1)O2` [Compound A Free form Modification A, 4-((2S,4S)-5-Chloro-6-fluoro-2-phenyl-2-((S)-pyrrolidin-2-yl)-2,3-dihydrobenzofuran-4-yl)-5-fluoro-6-(2-hydroxyethoxy)-N-methylnicotinamide], the “Bulk amber vial (XRPD)” value ([1]; amber vial) was “No change”, the CL color ([1]; amber vial) was “A” and the “DP[%] degradation products, Bulk amber vial (HPLC)” value ([1]; amber vial) was 1.0%. The “Bulk clear vial (XPRD)” value ([1]; clear vial) was “No change”, the CL color ([1]; clear vial) was “B” and the “DP[%] degradation products, Bulk clear vial (HPLC)” value ([1]; clear vial) was 4.1%. For the same molecule, the XRPD ([2]; After 1 day at 80% RH) was “No change”, the “Loss on drying by TGA [%]” value ([2]; After 1 day at 80% RH) was 0.7% (110° C.) and the XRPD ([2]; After 1 day at 92% RH) was “No change”. The “Loss on drying by TGA [%]” value ([2]; After 1 day at 92% RH) was 1.0% (110° C.), the “Loss on drying by TGA [%]” value [2, 6] was 0.4% (110° C.) and the “final pH” value ([3]; FaSSIF V2 pH 6.5) was “(8.07)”. The “Sol. (solubility)” value [3, 7] was ~2, mg/mL, the “final pH” value ([3]; FeSSIF V2 pH 5.8) was “(5.98)” and the “Sol. (solubility)” value [3, 8] was >2, mg/mL. The “final pH” value ([3]; SGF pH 2.0) was “(2.39)”, the “Sol. (solubility)” value [3, 9] was >2, mg/mL and the “final pH” value ([3]; Water) was “(9.12)”. For the same molecule, the “Sol. (solubility)” value [3, 10] was 0.27, mg/mL, the “final pH” value ([3]; pH 1.2, 100 mM HCl) was “(1.16)” and the “Sol. (solubility)” value [3, 11] was >2, mg/mL. For the same molecule, the “final pH” value ([3]; pH 3.0, 50 mM citrate buffer) was “(3.10)”, the “Sol. (solubility)” value [3, 12] was >2, mg/mL and the “final pH” value ([3]; pH 4.7, 50 mM acetate buffer) was “(4.86)”. The “Sol. (solubility)” value [3, 13] was >2, mg/mL, the “final pH” value ([3]; pH 6.8, 50 mM phosphate buffer) was “(6.95)” and the “final pH” value [3, 14] was “(6.91)”. The “Sol. (solubility)” value [3, 15] was >2, mg/mL, the “Sol. (solubility)” value [3, 16] was >2, mg/mL and the “Bulk (XRPD)” value ([4]; 2 weeks 50° C./75% RH) was “No change”. For the same molecule, the CL color ([4]; 2 weeks 50° C./75% RH) was “A”, the “DP[%] degradation products, Bulk (HPLC)” value ([4]; 2 weeks 50° C./75% RH) was 1.3% and the “Bulk (XRPD)” value ([4]; 2 weeks 80° C., 11% RH) was “No change”. The CL color ([4]; 2 weeks 80° C., 11% RH) was “A”, the “DP[%] degradation products, Bulk (HPLC)” value ([4]; 2 weeks 80° C., 11% RH) was 1.4% and the “Bulk (XRPD)” value ([4]; 2 weeks 80° C./75% RH) was “gel”. The “DP[%] degradation products, Bulk (HPLC)” value ([4]; 2 weeks 80° C./75% RH) was 12.6%, the CL color [5, 17] was “A” and the “DP[%] degradation products” value [5, 17] was 1.4%. For the same molecule, the CL color [5, 18] was “A”, the “DP[%] degradation products” value [5, 18] was 2.5% and the CL color [5, 19] was “A”. The “DP[%] degradation products” value [5, 19] was 1.4%, the CL color [5, 20] was “A” and the “DP[%] degradation products” value [5, 20] was 1.2%. For the same molecule, the CL color [5, 21] was “A”, the “DP[%] degradation products” value [5, 21] was 1.7% and the CL color [5, 22] was “A”. The “DP[%] degradation products” value [5, 22] was 1.3%, the CL color [5, 23] was “A” and the “DP[%] degradation products” value [5, 23] was 1.2%. For the same molecule, the CL color [5, 24] was “A”, the “DP[%] degradation products” value [5, 24] was 1.1% and the CL color [5, 25] was “A”. For the same molecule, the “DP[%] degradation products” value [5, 25] was 1.2%, the CL color [5, 26] was “A” and the “DP[%] degradation products” value [5, 26] was 1.5%. The CL color [5, 27] was “gel”, the “DP[%] degradation products” value [5, 27] was 6.1% and the CL color [5, 28] was “gel”. For the same molecule, the “DP[%] degradation products” value [5, 28] was 7.8%, the CL color [5, 29] was “gel” and the “DP[%] degradation products” value [5, 29] was 11.8%. The CL color [5, 30] was “gel”, the “DP[%] degradation products” value [5, 30] was 3.3% and the CL color [5, 31] was “gel”. The “DP[%] degradation products” value [5, 31] was 6.6%.

In the case of `CNC(=O)c1cnc(OCCO)c(F)c1-c1c(Cl)c(F)cc2c1C[C@](c1ccccc1)([C@@H]1CCCN1)O2` [Compound A 4-hydroxybenzoate, 4-((2S,4S)-5-Chloro-6-fluoro-2-phenyl-2-((S)-pyrrolidin-2-yl)-2,3-dihydrobenzofuran-4-yl)-5-fluoro-6-(2-hydroxyethoxy)-N-methylnicotinamide], the “Bulk amber vial (XRPD)” value ([1]; amber vial) is reported as “No change”, the CL color ([1]; amber vial) is reported as “A” and the “DP[%] degradation products, Bulk amber vial (HPLC)” value ([1]; amber vial) is reported as 0.2%. The “Bulk clear vial (XPRD)” value ([1]; clear vial) was “No change”, the CL color ([1]; clear vial) was “A” and the “DP[%] degradation products, Bulk clear vial (HPLC)” value ([1]; clear vial) was 0.2%. The XRPD ([2]; After 1 day at 80% RH) was “No change”, the “Loss on drying by TGA [%]” value ([2]; After 1 day at 80% RH) was 0.6% (200° C.) and the XRPD ([2]; After 1 day at 92% RH) was “No change”. The “Loss on drying by TGA [%]” value ([2]; After 1 day at 92% RH) was 0.7% (200° C.), the “Loss on drying by TGA [%]” value [2, 6] was 0.5% (200° C.) and the “final pH” value ([3]; FaSSIF V2 pH 6.5) was “(6.55)”. The “Sol. (solubility)” value [3, 7] was >2, mg/mL, the “final pH” value ([3]; FeSSIF V2 pH 5.8) was “(5.86)” and the “Sol. (solubility)” value [3, 8] was >2, mg/mL. The “final pH” value ([3]; SGF pH 2.0) was “(2.36)”, the “Sol. (solubility)” value [3, 9] was >2, mg/mL and the “final pH” value ([3]; Water) was “(7.66)”. For the same molecule, the “Sol. (solubility)” value [3, 10] was >2, mg/mL, the “final pH” value ([3]; pH 1.2, 100 mM HCl) was “(1.18)” and the “Sol. (solubility)” value [3, 11] was >2, mg/mL. For the same molecule, the “final pH” value ([3]; pH 3.0, 50 mM citrate buffer) was “(3.12)”, the “Sol. (solubility)” value [3, 12] was >2, mg/mL and the “final pH” value ([3]; pH 4.7, 50 mM acetate buffer) was “(4.78)”. The “Sol. (solubility)” value [3, 13] was >2, mg/mL, the “final pH” value ([3]; pH 6.8, 50 mM phosphate buffer) was “(6.75)” and the “final pH” value [3, 14] was “(6.72)”. For the same molecule, the “Sol. (solubility)” value [3, 15] was >2, mg/mL, the “Sol. (solubility)” value [3, 16] was >2, mg/mL and the “Bulk (XRPD)” value ([4]; 2 weeks 50° C./75% RH) was “No change”. For the same molecule, the CL color ([4]; 2 weeks 50° C./75% RH) was “A”, the “DP[%] degradation products, Bulk (HPLC)” value ([4]; 2 weeks 50° C./75% RH) was 0.2% and the “Bulk (XRPD)” value ([4]; 2 weeks 80° C., 11% RH) was “No change”. For the same molecule, the CL color ([4]; 2 weeks 80° C., 11% RH) was “A”, the “DP[%] degradation products, Bulk (HPLC)” value ([4]; 2 weeks 80° C., 11% RH) was 0.2% and the “Bulk (XRPD)” value ([4]; 2 weeks 80° C./75% RH) was “No change”. For the same molecule, the CL color ([4]; 2 weeks 80° C./75% RH) was “A”, the “DP[%] degradation products, Bulk (HPLC)” value ([4]; 2 weeks 80° C./75% RH) was 1.5% and the CL color [5, 17] was “A”. For the same molecule, the “DP[%] degradation products” value [5, 17] was 0.3%, the CL color [5, 18] was “A” and the “DP[%] degradation products” value [5, 18] was 0.2%. For the same molecule, the CL color [5, 19] was “A”, the “DP[%] degradation products” value [5, 19] was 0.2% and the CL color [5, 20] was “A”. The “DP[%] degradation products” value [5, 20] was 0.3%, the CL color [5, 21] was “A” and the “DP[%] degradation products” value [5, 21] was 0.6%. The CL color [5, 22] was “A”, the “DP[%] degradation products” value [5, 22] was 0.4% and the CL color [5, 23] was “A”. For the same molecule, the “DP[%] degradation products” value [5, 23] was 0.1%, the CL color [5, 24] was “A” and the “DP[%] degradation products” value [5, 24] was 0.2%. The CL color [5, 25] was “A”, the “DP[%] degradation products” value [5, 25] was 0.3% and the CL color [5, 26] was “A”. The “DP[%] degradation products” value [5, 26] was 0.6%, the CL color [5, 27] was “A” and the “DP[%] degradation products” value [5, 27] was 3.6%. The CL color [5, 28] was “A”, the “DP[%] degradation products” value [5, 28] was 2.3% and the CL color [5, 29] was “A”. For the same molecule, the “DP[%] degradation products” value [5, 29] was 1.5%, the CL color [5, 30] was “A” and the “DP[%] degradation products” value [5, 30] was 1.3%. For the same molecule, the CL color [5, 31] was “A” and the “DP[%] degradation products” value [5, 31] was 3.1%.
